The source of these data is ChEMBL document CHEMBL1129670, “Synthesis and structure-activity relationships of N-propyl-N-(4-pyridinyl)-1H-indol-1-amine (besipirdine) and related analogs as potential therapeutic agents for Alzheimer's disease” (J Med Chem, 1996).

Assay [1] deals with Sodium-dependent noradrenaline transporter (Homo sapiens, UniProt P23975).
Description: Inhibitory activity against norepinephrine (NE) uptake in rat whole brain synaptosome preparation
In assay [2] the target is Muscarinic acetylcholine receptor. The format is cell membranes, Membrane.
Description: Inhibition of [3H]quinuclidinyl benzilate (QNB) binding from rat forebrain membranes in the presence of Zn
The species entered for assay [3] is Mus musculus. Description: animal or person.
Description: Effective dose against administration in mice
Assay [4] is filed under the species Mus musculus. The conditions noted are these: dose 0.63 mg/kg; route subcutaneous.
Description: Antagonistic activity against Scopolamine induced behavioral deficits in mice at dose 0.63 mg/kg sc
For assay [5], the target named is Muscarinic acetylcholine receptor. The format is cell membranes, Membrane. This is another data set of the same source.
Description: Inhibition of [3H]quinuclidinyl benzilate (QNB) binding from rat forebrain membranes in the absence of Zn
Assay [6] is filed under the species Mus musculus. Description: Antagonistic activity against Scopolamine induced behavioral deficits in mice; 2/6. It counts as functional.
The subject of assay [7] is Mus musculus. As to the kind of experiment: Antagonistic activity against Scopolamine induced behavioral deficits in mice at dose 0.16 mg/kg sc. The note with it: route subcutaneous. It counts as functional.
Assay [8] is filed under the species Mus musculus. As to the kind of experiment: Antagonistic activity against Scopolamine induced behavioral deficits in mice; 2/10. The format is functional.
The test system of assay [9] is Mus musculus. Description: Antagonistic activity against Scopolamine induced behavioral deficits in mice at dose […] sc. It counts as functional. The conditions noted are these: route subcutaneous.
The test system of assay [10] is Mus musculus. As to the kind of experiment: Antagonistic activity against Scopolamine induced behavioral deficits in mice at dose 0.04 mg/kg sc. The note with it: route subcutaneous. It counts as functional.
The target of assay [11] is T1, Acetylcholinesterase (Rattus norvegicus, UniProt P37136).
T1 sequence (P37136 whole entry): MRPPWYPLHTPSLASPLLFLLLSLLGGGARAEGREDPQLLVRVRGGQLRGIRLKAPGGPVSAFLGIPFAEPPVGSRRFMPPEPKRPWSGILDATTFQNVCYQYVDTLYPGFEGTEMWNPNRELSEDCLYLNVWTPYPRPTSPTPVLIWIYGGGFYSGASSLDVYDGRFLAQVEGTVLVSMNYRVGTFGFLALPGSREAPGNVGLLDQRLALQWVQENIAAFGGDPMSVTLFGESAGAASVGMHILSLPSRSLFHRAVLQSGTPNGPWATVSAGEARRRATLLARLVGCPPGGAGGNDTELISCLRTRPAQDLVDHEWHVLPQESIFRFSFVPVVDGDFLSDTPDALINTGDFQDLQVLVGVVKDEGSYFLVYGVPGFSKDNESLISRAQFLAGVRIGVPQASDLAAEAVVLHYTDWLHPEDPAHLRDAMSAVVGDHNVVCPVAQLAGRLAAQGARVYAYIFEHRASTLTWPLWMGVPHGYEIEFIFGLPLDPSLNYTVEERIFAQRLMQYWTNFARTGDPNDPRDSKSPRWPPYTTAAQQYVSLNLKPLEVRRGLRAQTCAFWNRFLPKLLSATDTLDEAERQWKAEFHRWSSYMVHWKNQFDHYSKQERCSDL
Description: Inhibitory activity against acetylcholinesterase in rat striatal preparation

Assay [12] deals with T2, Adrenergic receptor alpha-2 (Rattus norvegicus, UniProt P22086+P19328+P22909).
T2 sequence (P22086 whole entry): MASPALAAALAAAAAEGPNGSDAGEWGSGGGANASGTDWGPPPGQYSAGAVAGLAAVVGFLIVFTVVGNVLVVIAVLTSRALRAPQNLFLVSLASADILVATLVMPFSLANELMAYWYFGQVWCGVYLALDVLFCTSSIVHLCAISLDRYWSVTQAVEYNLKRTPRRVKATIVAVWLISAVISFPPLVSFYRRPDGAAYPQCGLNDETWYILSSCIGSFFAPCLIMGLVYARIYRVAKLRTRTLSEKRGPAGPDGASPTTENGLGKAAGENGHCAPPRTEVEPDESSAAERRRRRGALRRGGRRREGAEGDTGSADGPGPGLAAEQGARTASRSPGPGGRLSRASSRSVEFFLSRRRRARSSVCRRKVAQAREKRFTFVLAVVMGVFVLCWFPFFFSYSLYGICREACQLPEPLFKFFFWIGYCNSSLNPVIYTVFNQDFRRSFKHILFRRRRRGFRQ
T2 sequence (P19328 whole entry): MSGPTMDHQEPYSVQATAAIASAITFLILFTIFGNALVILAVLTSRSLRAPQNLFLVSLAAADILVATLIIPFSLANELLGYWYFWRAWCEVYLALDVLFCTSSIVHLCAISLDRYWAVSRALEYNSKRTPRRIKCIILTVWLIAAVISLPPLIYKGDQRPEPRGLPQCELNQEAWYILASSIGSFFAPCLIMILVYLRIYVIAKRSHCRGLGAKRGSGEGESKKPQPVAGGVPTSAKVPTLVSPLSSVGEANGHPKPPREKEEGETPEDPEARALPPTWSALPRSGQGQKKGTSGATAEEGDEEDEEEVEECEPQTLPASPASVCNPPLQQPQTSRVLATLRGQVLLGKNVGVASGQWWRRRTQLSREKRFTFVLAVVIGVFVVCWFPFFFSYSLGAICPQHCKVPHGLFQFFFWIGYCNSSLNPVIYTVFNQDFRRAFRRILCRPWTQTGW
T2 sequence (P22909 whole entry): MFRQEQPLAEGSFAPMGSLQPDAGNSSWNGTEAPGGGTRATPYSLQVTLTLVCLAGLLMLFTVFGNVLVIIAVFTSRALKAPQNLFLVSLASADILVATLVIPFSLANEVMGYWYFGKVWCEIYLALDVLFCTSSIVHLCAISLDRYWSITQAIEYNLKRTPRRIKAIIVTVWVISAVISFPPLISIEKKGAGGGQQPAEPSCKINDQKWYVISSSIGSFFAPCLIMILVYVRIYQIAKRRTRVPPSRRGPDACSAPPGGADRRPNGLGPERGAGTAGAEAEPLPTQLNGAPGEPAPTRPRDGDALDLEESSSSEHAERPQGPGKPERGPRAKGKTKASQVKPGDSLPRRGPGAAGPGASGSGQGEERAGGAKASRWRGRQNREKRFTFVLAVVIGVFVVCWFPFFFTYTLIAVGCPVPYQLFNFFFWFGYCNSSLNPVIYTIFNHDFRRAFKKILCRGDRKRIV
Description: Inhibitory activity against [3H]clonidine binding to Alpha-2 adrenergic receptor in rat cortex.

For assay [13], the system named is Mus musculus. Description: Antagonistic activity against Scopolamine induced behavioral deficits in mice at dose 10 mg/kg sc. The format is functional. The note with it: route subcutaneous.
Assay [14] deals with Mus musculus. Description: Antagonistic activity against Scopolamine induced behavioral deficits in mice at dose 5.0 mg/kg sc; 2/8. It counts as functional.
In assay [15] the test system is Mus musculus. Description: Antagonistic activity against Scopolamine induced behavioral deficits in mice at dose 1.25 mg/kg sc. The note with it: route subcutaneous. It counts as functional.
In assay [16] the target is T3, Adrenergic receptor alpha-1 (Rattus norvegicus, UniProt P15823+P23944+P43140).
T3 sequence (P15823 whole entry): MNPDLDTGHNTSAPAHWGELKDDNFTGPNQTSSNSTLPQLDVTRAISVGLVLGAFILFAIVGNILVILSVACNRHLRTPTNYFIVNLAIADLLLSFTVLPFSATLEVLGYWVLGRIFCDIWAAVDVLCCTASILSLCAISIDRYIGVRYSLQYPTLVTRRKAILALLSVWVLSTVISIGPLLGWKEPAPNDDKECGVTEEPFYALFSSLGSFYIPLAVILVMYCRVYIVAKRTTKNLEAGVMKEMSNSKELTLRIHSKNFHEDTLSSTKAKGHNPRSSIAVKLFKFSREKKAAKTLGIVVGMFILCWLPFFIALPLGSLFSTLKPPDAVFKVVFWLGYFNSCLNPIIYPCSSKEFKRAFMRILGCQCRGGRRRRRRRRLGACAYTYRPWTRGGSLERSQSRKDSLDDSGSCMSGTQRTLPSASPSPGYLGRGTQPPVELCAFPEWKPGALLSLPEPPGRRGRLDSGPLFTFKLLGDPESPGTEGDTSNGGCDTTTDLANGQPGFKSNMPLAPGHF
T3 sequence (P23944 whole entry): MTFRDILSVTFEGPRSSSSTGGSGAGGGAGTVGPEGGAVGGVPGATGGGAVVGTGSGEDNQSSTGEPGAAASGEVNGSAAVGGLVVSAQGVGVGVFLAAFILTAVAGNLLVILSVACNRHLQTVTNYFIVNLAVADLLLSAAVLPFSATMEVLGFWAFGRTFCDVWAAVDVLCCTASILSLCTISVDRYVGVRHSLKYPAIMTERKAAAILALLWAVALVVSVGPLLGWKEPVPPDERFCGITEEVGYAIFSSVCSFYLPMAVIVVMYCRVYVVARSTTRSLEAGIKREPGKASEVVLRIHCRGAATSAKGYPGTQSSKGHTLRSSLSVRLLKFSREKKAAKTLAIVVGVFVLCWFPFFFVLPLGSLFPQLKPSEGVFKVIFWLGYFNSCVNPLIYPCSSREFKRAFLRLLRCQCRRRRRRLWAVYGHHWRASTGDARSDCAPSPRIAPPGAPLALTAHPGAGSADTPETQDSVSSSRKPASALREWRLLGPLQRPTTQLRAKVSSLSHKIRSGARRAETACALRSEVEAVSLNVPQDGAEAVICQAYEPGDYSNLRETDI
T3 sequence (P43140 whole entry): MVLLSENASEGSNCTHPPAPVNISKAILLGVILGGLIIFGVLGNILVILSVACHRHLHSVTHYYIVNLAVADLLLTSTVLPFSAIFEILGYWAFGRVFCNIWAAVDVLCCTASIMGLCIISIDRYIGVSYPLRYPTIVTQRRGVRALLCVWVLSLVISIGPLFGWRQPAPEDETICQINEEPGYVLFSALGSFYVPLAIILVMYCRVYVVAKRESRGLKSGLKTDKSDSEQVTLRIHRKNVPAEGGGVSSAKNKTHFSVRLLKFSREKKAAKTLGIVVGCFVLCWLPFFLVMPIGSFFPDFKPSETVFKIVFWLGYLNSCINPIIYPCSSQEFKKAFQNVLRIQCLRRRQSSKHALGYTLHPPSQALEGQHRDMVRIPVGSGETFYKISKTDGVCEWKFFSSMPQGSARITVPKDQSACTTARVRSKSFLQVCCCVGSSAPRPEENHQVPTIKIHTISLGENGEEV
Description: Inhibitory activity against [3H]WB-4101 binding to Alpha-1 adrenergic receptor in rat whole brain membrane. The format is cell membranes.

Sodium-dependent noradrenaline transporter, sequence (P23975 whole entry): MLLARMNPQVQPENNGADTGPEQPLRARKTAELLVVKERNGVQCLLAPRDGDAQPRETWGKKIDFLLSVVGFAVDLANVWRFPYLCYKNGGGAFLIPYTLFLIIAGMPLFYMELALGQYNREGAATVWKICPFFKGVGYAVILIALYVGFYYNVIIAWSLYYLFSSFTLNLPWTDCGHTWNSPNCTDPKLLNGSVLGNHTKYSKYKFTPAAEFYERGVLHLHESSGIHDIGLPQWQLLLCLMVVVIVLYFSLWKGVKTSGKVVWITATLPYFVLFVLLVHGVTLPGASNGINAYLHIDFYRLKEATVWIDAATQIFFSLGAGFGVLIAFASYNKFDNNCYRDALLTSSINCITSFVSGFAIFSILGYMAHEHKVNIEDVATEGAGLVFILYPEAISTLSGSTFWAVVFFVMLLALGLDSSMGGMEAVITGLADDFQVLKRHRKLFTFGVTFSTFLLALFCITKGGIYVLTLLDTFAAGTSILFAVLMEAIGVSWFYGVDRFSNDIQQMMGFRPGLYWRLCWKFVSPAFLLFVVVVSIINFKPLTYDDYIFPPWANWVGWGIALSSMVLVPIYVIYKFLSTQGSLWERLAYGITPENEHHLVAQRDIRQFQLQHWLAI

Regarding `CCCN(c1[nH]cnc2ncnc1-2)n1ccc2ccccc21`, the half-inhibitory concentration (IC50) (in general, the midpoint of a concentration-inhibition curve) was 12 µM in [1], 58 µM in [2] and above 300 µM in assay [5]. Moreover, the median effective dose (ED50) – broadly, the midpoint of the dose-response relation – in [3] is above 20 mg/kg. In addition, the Response in [4] and in assay [7] was 20% each time. The Antagonism in assay [6] was 2.
For `CCCN(c1ccncc1)n1cc(C)c2ccccc21`, the IC50 is 1.3 µM in assay [1]; 4.5 µM in [2]; 19 µM in assay [5]; 29 µM in assay [11]; 2.5 µM in [12]. The same molecule registered an ED50 in [3] of 1.8 mg/kg. The Antagonism in assay [8] was 2. For the same molecule, the Response in [9] came out at 20%; in assay [10], 22%.
`CCCN(c1ccncc1)n1c2ccccc2c2ccccc21.O=C(O)/C=C/C(=O)O`: the 50% inhibitory concentration (IC50) in assay [1] is 2.4 µM; in [2] it was 0.5 µM; in assay [5], 5.5 µM; in assay [11], above 100 µM; in [16], 3.2 µM; in assay [12] it was 0.54 µM. Further, the ED50 in assay [3] is 1.5 mg/kg. The Response in assay [13] was 24%; in [15] it was 20%. The molecule further showed an Antagonism in [14] of 2.
